Data on 20 compounds can be found in US12279617B2, “Agricultural and horticultural chemical agent containing new imidazopyridine-2-carboxamide derivative as active ingredient” (AGRO-KANESHO CO., LTD., priority 2019, dated 2025).

What all share (format): in vivo
The subject of experiment [1] is Spodoptera litura (Fabricius). As to the kind of experiment: Larvicide test for Spodoptera litura (Fabricius). The following applies: 500 ppm emulsion agent; artificial feed immersed about 60 seconds; 7 days after insect release; 25° C.; agony insects counted as dead. An excerpt:
A water diluted solution of an emulsion agent (500 ppm) prepared as in Formulation Example 1 was put in a 120-mL polyethylene cup, and artificial feed Insecta LF (Nosan Corporation, diameter: 5 cm) sliced into 5 mm thickness and cut into ¼ was immersed in the polyethylene cup for about 60 seconds. After the immersion treatment, the resultant artificial feed piece was put in another 120-mL polyethylene cup (diameter: 8 cm, height: 4 cm) with filter paper (diameter: 55 mm) on the bottom together with test insects, and the cup was covered with a lid and was then kept in a thermostat chamber of 25° C. Seven days after the insect release, the life-and-death and the agony of the larvae were investigated, and the insecticidal rate (%) when agony insects were included in dead insects was determined. Incidentally, the test was carried out by using one cup in each ward. Insecticidal rate (%)=[number of dead larvae)/(number of test larvae)]×100

For experiment [2], the system named is Plutella xylostella. As to the kind of experiment: Insecticidal effect test for Plutella xylostella of Chinese cabbage. The following applies: 500 ppm emulsion agent sprayed on Chinese cabbage seedlings; 3rd instar larvae; 5 days after insect release; 25° C.; agony insects counted as dead. On the procedure:
A sufficient amount of a water diluted solution of an emulsion agent (500 ppm) prepared as in Formulation Example 1 was sprayed with an air brush to the leaves of Chinese cabbage seedlings planted in pots raised for 2 weeks after sowing. The liquid agent was air dried, and five 3rd instar larvae of Plutella xylostella were then inoculated per pot and were kept in a thermostat chamber of 25° C. Five days after the insect release, the life-and-death and the agony of the larvae were investigated, and the insecticidal rate (%) when agony insects were included in dead insects was determined. Incidentally, the test was carried out by using one seedling in each ward. Insecticidal rate (%)=[number of dead larvae)/(number of test larvae)]×100

The subject of experiment [3] is Aculops lycopersici Massee. As to the kind of experiment: Adult-killing test for Aculops lycopersici Massee (tomato rust mites). The following applies: 500 ppm emulsion agent sprayed 2.0 mL per cup on tomato leaf disks; 3 days after treatment; 25° C.; scored on four scales (100, 80, 50, 0). The source says:
A lid provided with a hole (diameter: about 5 mm) at the center was put on a 430-mL polyethylene cup containing water. Circular filter paper with a diameter of 6.5 cm which was cut such that a strip-shaped filter paper piece having a width of about 5 mm was formed was put on the lid, and the filter paper piece was inserted into the hole of the lid so that the tip of the piece extends downward from the hole and immersed in the water in the cup. Furthermore, absorbent cotton was put on the filter paper such that the water in the cup was always supplied to the absorbent cotton. Three leaf disks (1 cm×1 cm) of leaflets of tomato in the early stage of true leaf development were put on the absorbent cotton such that the back of the leaves in the disk form was on top, and small pieces of a leaf parasitized by tomato rust mites were inoculated on the leaves in the disk form. After 24 hours from the inoculation, the small pieces were removed, and the cup was placed in an acrylic cylinder having a height of 50 cm and a diameter of 10 cm. A water diluted solution of an emulsion agent (500 ppm) prepared as in Formulation Example 1 was sprayed in an amount of 2.0 mL per cup using an air brush. After the spraying, the cup was kept in a thermostat chamber of 25° C. Three days after the treatment, the control rate was evaluated on four scales: 100 (control rate: 100%), 80 (control rate: 99% to 80%), 50 (control rate: 79% to 50%), and 0 (control rate: less than 50%), and the next-generation density suppression rate was calculated based on the results by the following equation. Incidentally, the test was carried out by using one cup in each ward. Control rate=(A×100+B×80+C×50)/(A+B+C+D) A: the number of disks for 100, B: the number for disks of 80, C: the number for disks of 50, D: the number of disks for 0.

As for `CCSc1c(C(=O)N(COC)c2ccc(C(F)(F)F)cc2)nc2ccc(C(F)(F)F)cn12` [A-13, N-(methoxymethyl)-N-{4-(trifluoromethyl)phenyl}-3-(ethylthio)-6-(trifluoromethyl)imidazo[1,2-a]pyridine-2-carboxamide], the insecticidal rate in experiment [1] and in experiment [2] was 100% each time.
With `CCOCN(C(=O)c1nc2ccc(C(F)(F)F)cn2c1SCC)c1ccc(SC(F)(F)F)cc1` [A-70], the insecticidal rate in experiment [1] and in experiment [2] was 100% each time. The compound further gave a control rate in experiment [3] of 100%.
In the case of `CCOCN(C(=O)Cc1ccncc1S(=O)(=O)CC)c1ccc(C(F)(F)F)cc1` [Compound B, reference compound], the insecticidal rate in experiment [1] is reported as 0%; in experiment [2] it was 50%. Besides, in experiment [3], the control rate came out at 100%.
For `CCS(=O)(=O)c1c(C(=O)N(CS(C)(=O)=O)c2ccc(C(F)(F)F)cc2)nc2ccc(C(F)(F)F)cn12` [A-102], in that order: 100%, 100% and 100%.
In the same order, the values of `CCOCN(C(=O)c1nc2ccc(Cl)cn2c1SCC)c1ccc(C(F)(F)F)cc1` [A-25] are 100%, 100% and 100%.
Consider `CCOCN(C(=O)c1nc2ccc(C(F)(F)F)cn2c1SCC)c1ccc(C(F)(F)F)nc1` [A-91], for which the insecticidal rate in experiment [1] and in experiment [2] was 100% throughout.
Regarding `CCOCN(C(=O)c1nc2ccc(C(F)(F)F)cn2c1S(=O)(=O)CC)c1ccccc1C(F)(F)F` [A-33], the insecticidal rate in experiment [1] and in experiment [2] was 100% in each case. In experiment [3], the control rate is on record as 100%.
On to `CCOCN(C(=O)c1nc2ccc(C(F)(F)F)cn2c1S(=O)(=O)CC)c1ccc(SC(F)(F)F)cc1` [A-72], for which the insecticidal rate in experiment [1] and in experiment [2] was 100% throughout. This compound yielded a control rate in experiment [3] of 100%.
In the case of `CCOCN(C(=O)c1nc2cccc(C(F)(F)F)n2c1S(=O)(=O)CC)c1ccc(C(F)(F)F)cc1` [A-18], the insecticidal rate in experiment [1] and in experiment [2] was 100% in each case.
Take `CC[S+]([O-])c1c(C(=O)N(COC)c2ccc(C(F)(F)F)cc2)nc2ccc(C(F)(F)F)cn12` (stereo not drawn) [A-14, N-(methoxymethyl)-N-{4-(trifluoromethyl)phenyl}-3-(ethylsulfinyl)-6-(trifluoromethyl)imidazo[1,2-a]pyridine-2-carboxamide]: the insecticidal rate in experiment [1] and in experiment [2] was 100% each time. Moreover, in experiment [3], the control rate amounted to 100%.
As to `CCOCN(C(=O)c1nc2ccc(C(F)(F)F)cn2c1S(=O)(=O)CC)c1ccc([S+]([O-])C(F)(F)F)cc1` (stereo not drawn) [A-75], the insecticidal rate in experiment [1] and in experiment [2] was 100% throughout. This compound gave a control rate in experiment [3] of 100%.
For the compound `CCOCN(C(=O)c1nc2cc(C(F)(F)F)ccn2c1S(=O)(=O)CC)c1ccc(C(F)(F)F)cc1` [A-21], the insecticidal rate in experiment [1] and in experiment [2] was 100% throughout.
For the compound `CCOCN(C(=O)c1nc2ccc(C(F)(F)F)cn2c1S(=O)(=O)CC)c1ccc(C(F)(F)F)cn1` [A-96], the insecticidal rate in experiment [1] and in experiment [2] was 100% each time. This compound came in with a control rate in experiment [3] of 100%.
For the compound `CCS(=O)(=O)c1c(C(=O)N(COC)c2ccc(C(F)(F)F)cc2)nc2ccc(C(F)(F)F)cn12` [A-15, N-(methoxymethyl)-N-{4-(trifluoromethyl)phenyl}-3-(ethylsulfonyl)-6-(trifluoromethyl)imidazo[1,2-a]pyridine-2-carboxamide], the insecticidal rate in experiment [1] and in experiment [2] was 100% throughout. Moreover, the control rate in experiment [3] turned out to be 100%.
Regarding `CCS(=O)(=O)c1c(C(=O)N(C)c2ccc(C(F)(F)F)cc2)nc2ccc(C(F)(F)F)cn12` [Compound A, reference compound], the insecticidal rate in experiment [1] and in experiment [2] was 90% in each case. In addition, the control rate in experiment [3] is 100%.
For the compound `CCOCN(C(=O)c1nc2ccc(Cl)cn2c1S(=O)(=O)CC)c1ccc(C(F)(F)F)cc1` [A-27], the insecticidal rate in experiment [1] and in experiment [2] was 100% each time. Besides, the control rate in experiment [3] is given as 100%.
Take `CCOCN(C(=O)c1nc2c(C(F)(F)F)cccn2c1SCC)c1ccc(C(F)(F)F)cc1` [A-22]: the insecticidal rate in experiment [1] and in experiment [2] was 100% throughout.
Turning to `CCOCN(C(=O)c1nc2cc(C(F)(F)F)ccn2c1[S+]([O-])CC)c1ccc(C(F)(F)F)cc1` (stereo not drawn) [A-20], the insecticidal rate in experiment [1] and in experiment [2] was 100% in each case.
In the case of `CCS(=O)(=O)c1c(C(=O)N(CSC)c2ccc(C(F)(F)F)cc2)nc2ccc(C(F)(F)F)cn12` [A-99], the insecticidal rate in experiment [1] and in experiment [2] was 100% throughout.
In turn, `CCOCN(C(=O)c1nc2ccc(C(F)(F)F)cn2c1SCC)c1ccccc1C(F)(F)F` [A-31] registered an insecticidal rate in experiment [2] of 100%.
